The target of series [1] is T1, A32WT (vaccinia virus A32, putative genome packaging ATPase) (Vaccinia virus WR, UniProt P68615, L234K/Q237A).
T1 construct: gene OPG160
The settings on record: read-out: A32LL234K_Q237A / - / DNA.

Series [2] addresses T2, A32WT (vaccinia virus A32, putative genome packaging ATPase) (Vaccinia virus WR, UniProt P68615, K31A).
T2 construct: gene OPG160
To be noted: read-out: A32K31A / - / DNA.

The series “native gel or EMSA” deals with the molecule itself. Put plainly: native gel or EMSA.

Experimental findings from PMC11703096 (PLOS ONE, 2025) are described below.

`Nc1ncnc2c1ncn2[C@@H]1O[C@H](COP(=O)(O)OP(=O)(O)OP(=O)(O)O)[C@@H](O)[C@H]1O` [ATP]: the Km in series [1] is 0.66 µM; in series [2] it was 0.2 µM.

B1: vaccinia virus A32 protein with an N-terminal thioredoxin tag and a C-terminal hexahistidine tag (A32WT) (enzyme)
chain: MNCFQEKQFSRENLLKMPFRMVLTGGSGSGKTIYLLSLFSTLVKKYKHIFLFTPVYNPDYDGYIWPNHINFVSSQESLEYNLIRTKSNIEKCIAVAQNHKKSAHFLLIFDDVGDKLSKCNTLIEFLNFGRHLNTSIILLCQTYRHVPILGRANITHFCSFNISISDAENMLRSMPVKGKRKDILNMLNMIQTARSNNRLAIIIEDSVFCEGELRICTDTADKDVIEQKLNIDILVNQYSHMKKNLNAILESKKTKLCNSDQSSSSKNVSS
In the case of B1, the binding result in “native gel or EMSA” is given as “binds”.
